In patent publication US12465609B2, “Methods of treating patients suffering from a disease condition or disorder that is associated with an increased glutamate level” (veriNOS operations GmbH, priority 2022, dated 2025):

Experiments:
[1] = system: C57 BL/6 mice, controlled cortical impact (CCI) model; assay: Controlled cortical impact (CCI) model in mice, intracranial pressure (ICP); assay type: in vivo; conditions: CCI mice, analogous treatment
Description: The primary objective of this experiment was the characterization of the intracranial pressure (ICP) reduction by VAS3384 in the controlled cortical impact (CCI) model in mice. The secondary objective was characterization of the neuroprotective effect (reduction of the lesion volume) of VAS3384 in the controlled cortical impact model in mice.
• Test compound A • Denomination: VAS 3384 • Active agent: 4-Amino-4-desoxy-7,8-dihydrobiopterin-dihydrochloride, obtained from Schircks Laboratories, Bauma, Switzerland • Detailed composition: VAS 3384 dissolved in sodium phosphate buffer (PBS) pH 7.4 • Formulation method: 15 mg of the test compound (VAS 3384) are dissolved in 500 μl PBS, pH 7.4. The solution is neutralized with 72 μl 1 N NaOH and filled up with 428 μl water (check pH). • Final concentration of active agent: 15 mg/ml • Appearance: yellow, clear solution • Storage (solid test compound): −20° C. • Dose applied: 560 mg/kg or 37.3 ml/kg • Way of administration: intravenous injection/infusion • Negative control • Denomination: sodium phosphate buffer (PBS) • Active agent: none • Detailed composition: Na2HPO4, NaH2PO4, 100 mM pH 7.4 • Formulation method: ready for use • Final concentration of active agent: not applicable • Appearance: colourless, clear solution • Expiration date: 3 months after preparation • Volume applied: 37.3 ml/kg • Way of administration: intravenous injection/infusion Experimental Procedure
The animals (C57 BL/6 mice), under Dormicum/Methidomidin/Fentanyl-narcosis were fixed in a stereo tactical frame and the scalp was opened with a cut along the median. The skull bone
was laid open and disinfected with H2O2. A hole of approx. 1.2 mm diameter was then drilled into the skull (Bregma 0.4-0.4 mm). The ICP-probe was introduced through this hole. The V. jugularis was be laid open and a catheter introduced. This catheter was introduced in the neck subcutaneously and fixed on the cap of the cage with a protective spiral of metal. This setup permitted an infusion in awake animals. The skull was opened above of the right cortex and mechanically traumatized (CCI model). The skullcap was then closed with the removed bone.
Mice 1-9: 10 minutes after the trauma the animals got an intravenous bolus injection of 20 mg/kg VAS 3384 (=1.33 ml/kg) followed by an infusion of 1.5 mg/kg/min (=100 μl/kg/min) VAS 3384 over six hours to maintain the dose. After six hours, after termination of the infusion, and after 24 hours the ICP of the animals was measured. After 24 hours the animals were sacrificed, the brains dissected and the lesion volume determined by Nissl's method.
Mice 10-18: 10 minutes after the trauma the animals received an intravenous bolus injection of 1.33 ml/kg PBS followed by an infusion of 100 μl/kg/min PBS over six hours. After six hours, after the termination of the infusion, and after 24 hours the ICP of the animals was measured.
At the end of the observation period animals were sacrificed by cervical dislocation in deep halothane anaesthesia. The brains were carefully removed, frozen in powdered dry ice, and stored at −20° C. until further use. Ten μm coronal sections were prepared every 500 μm on a cryostat (CryoStar HM 560, Microm, Walldorf, Germany) and stained with cresyl violet. Sections were photographed with a digital camera system. The contusion area, the area of the non-traumatized tissue of the ipsilateral hemisphere, and the area of the contralateral hemisphere were determined on the digitized images with a standard image analysis software (Optimate 6.51, Media Cybernetics, Silver Spring, MD, USA) by an investigator blinded to the treatment of the animals. In order to correct for the swelling of contused tissue, the contusion area was calculated by subtracting the area of the non-traumatized tissue of the ipsilateral hemisphere from the area of the contralateral hemisphere. […]

[2] = system: extracellular brain lactate level; assay: Brain microdialysis, extracellular cerebral lactate levels in TBI patients; assay type: in vivo, human
Protocol: To monitor the metabolic condition of the patients, extracellular brain glutamate and lactate levels were measured. In more detail, the extracellular intracerebral glutamate and lactate levels measured here is the glutamate or lactate level in brain extracellular fluid (ECF). […] The measurements of the glutamate and lactate levels was carried out using established brain microdialysis (MD) methodology as described, for example, by Chamoun et al, example. Role of extracellular glutamate measured by cerebral microdialysis in severe traumatic brain injury. J Neurosurg. 2010 September; 113(3): 564-570.
The microdialysis (MD) equipment was obtained from M Dialysis AB, Stockholm, Sweden, see www.mdialysis.com. The following equipment was used. • Cerebral MD catheters: CMA 70 • CMA 70 bolt catheter • CMA 71 high cut-off cerebral catheter • Pumps: CMA106=fixed flow rate, CMA107=flexible flow rate • Perfusion solution: Cerebral: Perfusion fluid CNS • Analyzers: CMA 600, ISCUS, ISCUSflex Time Point of MD Catheter Insertion • Aim: Obtain stable baseline values before infusing study drug • Ideal: By 14 hours after TBI or 4 hours before study drug infusion to allow for tissue adaptation, usually lasting 1-4 hours • Compromise: As soon as possible, within 4 hours after beginning study drug infusion Site of Cerebral MD Catheter Insertion • Aim: Monitor metabolic changes close to structural damage visible on routine CT scan • Contusion: Close to the contusion • Mixed lesions: Predominantly injured hemisphere • With bolt system: Right or left frontal lobe • Without bolt system: Right or left frontal/temporal/parietal area • If possible cerebral MD catheter should be placed ipsilateral to the ICP probe • Special care should be taken to avoid inducing injury to pre- and postcentral cortex • The position of the MD probe and the position of the ICP probe in the eCRF should be indicated.
The cerebral glutamate and lactate levels were recorded every 1 h up to 5 days after the start of the infusion. Absolute values were be summarized per treatment group and for each time point by means of descriptive statistics. The 95% confidence intervals for the mean were calculated (normal approximation).
For the analysis of the metabolic state, it was considered that under normal (physiological) conditions glutamate is maintained at low levels (micromolar) in the extracellular space (<2 μmol/L) and in plasma (50-100 μmol/L) to avoid excessive glutamate receptor activation. Within the different intracellular compartments glutamate is present in higher amounts (5-15 millimolar). In brain microdialysis, glutamate levels exceeding 10 μmol/L are considered elevated, higher glutamate levels are associated with worse outcome. In addition to the absolute levels, dynamic changes are also important in interpreting underlying pathology. In brain microdialysis and blood, lactate levels exceeding 2.5 millimol/L are considered pathologically elevated, reflecting insufficient metabolic/energetic stability which is further aggravated by insufficient oxygen supply.

## C[C@H](O)[C@H](O)C1CNc2nc(N)nc(N)c2N1 (mixture of isomers) [Ronopterin, 4-Amino-(6R,S)-5,6,7,8-tetrahydro-L-biopterin]
[1]
  time ICP remained lowered after the treatment: at least 18 h
[2]; 18 to 39 years, all times to infusion, patients reaching <2.5 millimol/L (FIG. 7A)
  extracellular cerebral lactate levels: lower brain lactate levels compared to the placebo group
[2]; 18 to 39 years, infusion >12 hours, a number of patients <2.5 millimol/L (FIG. 8C)
  extracellular cerebral lactate levels: lower brain lactate levels than the placebo group
[2]; 18 to 39 years, infusion ≤12 hours, a number of patients <2.5 millimol/L (FIG. 8A)
  extracellular cerebral lactate levels: lower brain lactate levels than the placebo group
[2]; 40 to 60 years, all times to infusion, all patients, higher than placebo (FIG. 7C)
  extracellular cerebral lactate levels: ≥ 2.5 millimol/L
[2]; 40 to 60 years, infusion ≤12 hours, all patients, higher than placebo (FIG. 9A)
  extracellular cerebral lactate levels: ≥ 2.5 millimol/L
[2]; within 120 hours after administration, stayed below threshold or only slightly elevated
  extracellular brain lactate levels: < 2.5 millimol/L
